Measurements: patent US20090209460A1, “COMPOSITIONS AND METHODS FOR TREATING OBESITY AND RELATED METABOLIC DISORDERS” (Amylin Pharmaceuticals, Inc., priority 2005, published 2009)
Where two headings read alike, the source gives them in different places. Residues, ends and D or L forms follow the SMILES beside them.

Legend:
NIH/Swiss mice = assay: acute food intake assay, lean overnight-fasted NIH/Swiss mice, intraperitoneal injection; assay type: in vivo, mouse; conditions: for Food Intake Inhibition: mouse assay, dose of 200 mg/kg, measured at 60 minutes; for FI (60′, 200): food intake, % change relative to control, 60 min
Protocol: The effect of NMX Peptides, FNX Peptides or NMX Receptor agonists on food intake when systemically administered was investigated using an acute food intake assay. This assay measured food consumption in lean subjects. Lean, group-housed, overnight-fasted NIH/Swiss mice. All in vivo tests were performed with peripheral injections of peptide. […] The dose-response data are presented herein. The protocol is described below. Female NIH/Swiss mice (8-24 weeks old) were group housed with a 12:12 hour light:dark cycle, with lights on at 0300. Water and a standard pelleted mouse chow diet are available ad libitum, except as noted. Animals are fasted starting at approximately 1530 hrs, 1 day prior to experiment. At time=0 min, all animals are given an intraperitoneal injection of vehicle or polypeptide in a volume of 200 uL/mouse and immediately given a pre-weighed amount (10-15 g) of the standard chow. Food is removed and weighed at 30, 60, and 120 minutes to determine the amount of food consumed. The effects of treatment on food intake are expressed as % change relative to control.

[1] = brush border membrane (BBM) stability assay; assay type: in vitro ADME, human; conditions: brush border membrane extract (e.g. kidney)
Protocol: Some exemplary NMX Peptides and FNX Peptides were tested for stability in a brush border membrane (BBM) assay as described herein. To determine the enzymatic stability of peptide hormones peptides are incubated with a preparation of human brush border membranes extract (e.g., kidney), and the stability of the peptide is determined by measuring concentration of the intact peptide at specific intervals. The brush border membrane extract contains dipeptidyl peptidase IV (DPP-IV), neutral endopeptidases, peptidyl-dipeptidase A, carboxypeptidases and aminopeptidases. These are the primary enzymes that degrade peptides in vivo and are found in the kidneys, liver, lungs and pancreas. Resistance against these human proteases would increase peptide half-life. In the BBM assay test peptide was subjected to digestion over a period of five (5) hours with human brush border membrane extracts, e.g. kidney, at 37° C. At desired timepoints digestion was stopped by addition of quench solution, typically 50% ACN, 1% FA. After centrifugation to remove membrane debris, supernatant was subjected to mass spectrometry using a selected ion scan for the intact molecule of interest. Values are expressed as a percent of stable. A value of at least 80 or greater is regarded as an extremely stable molecule. A value of at least 70 or greater is a molecule with significant stability.

[2] = percent compound remaining after a 5 hour incubation, human brush border membrane assay, read-out: hBBM

Structure (SMILES)	remaining at 5 h [1, 2]	Food Intake Inhibition (NIH/Swiss mice)	other results
CC(C)C[C@H](NC(=O)[C@H](CCCCN)NC(=O)[C@H](CCC(N)=O)NC(=O)[C@@H](NC(=O)[C@H](CCCCN)NC(=O)[C@H](CO)NC(=O)[C@H](Cc1ccc(O)cc1)NC(=O)[C@H](Cc1c[nH]cn1)NC(=O)[C@H](Cc1ccccc1)NC(=O)[C@H](CC(C)C)NC(=O)[C@@H](N)Cc1ccccc1)[C@@H](C)O)C(=O)NCC(=O)N[C@@H](CCCCN)C(=O)N[C@@H](CO)C(=O)N[C@@H](CC(N)=O)C(=O)N[C@@H](CCC(=O)O)C(=O)N[C@@H](CCC(=O)O)C(=O)N[C@@H](CC(C)C)C(=O)N[C@@H](CCC(N)=O)C(=O)N[C@@H](CO)C(=O)N1CCC[C@H]1C(=O)N[C@@H](CO)C(=O)N[C@@H](CCCNC(=N)N)C(=O)NCC(=O)N[C@@H](Cc1ccc(O)cc1)C(=O)N[C@@H](Cc1ccccc1)C(=O)N[C@@H](CC(C)C)C(=O)N[C@@H](Cc1ccccc1)C(=O)N[C@@H](CCCNC(=N)N)C(=O)N1CCC[C@H]1C(=O)N[C@@H](CCCNC(=N)N)C(=O)N[C@@H](CC(N)=O)C(N)=O (H-FLFHYSKTQKLGKSNEELQSPSRGYFLFRPRN-NH2; N-terminus assumed)	77%	−79%	–
CC(C)C[C@H](NC(=O)[C@H](Cc1ccccc1)NC(=O)[C@H](Cc1ccc(O)cc1)NC(=O)CN)C(=O)N[C@@H](Cc1ccccc1)C(=O)N[C@@H](CCCNC(=N)N)C(=O)N1CCC[C@H]1C(=O)N[C@@H](CCCNC(=N)N)C(=O)N[C@@H](CC(N)=O)C(N)=O [Compound 163357, reference compound] (H-GYFLFRPRN-NH2; N-terminus assumed)	–	–	activity in food intake assays (NIH/Swiss mice; doses up to 170 nmol/kg): inactive; FI (60′, 200) (NIH/Swiss mice): 26%
CC[C@H](C)[C@H](NC(=O)[C@@H](NC(=O)CNC(=O)CNC(=O)[C@@H]1CCCN1C(=O)[C@@H](NC(=O)[C@H](CCC(N)=O)NC(=O)[C@@H](NC(=O)[C@H](CCC(=O)O)NC(=O)[C@H](CCC(=O)O)NC(=O)[C@H](CC(=O)O)NC(=O)[C@H](CO)NC(=O)[C@H](CC(N)=O)NC(=O)[C@H](CO)NC(=O)[C@H](CCCCN)NC(=O)CNC(=O)[C@H](CC(C)C)NC(=O)[C@H](CCCCN)NC(=O)[C@H](CCC(N)=O)NC(=O)[C@@H](NC(=O)[C@H](CCCCN)NC(=O)[C@H](CO)NC(=O)[C@H](Cc1ccc(O)cc1)NC(=O)[C@H](Cc1c[nH]cn1)NC(=O)[C@H](Cc1ccccc1)NC(=O)[C@H](CC(C)C)NC(=O)[C@@H](N)Cc1ccccc1)[C@@H](C)O)C(C)C)C(C)C)C(C)C)C(=O)N[C@@H](CO)C(=O)N[C@@H](CC(N)=O)C(=O)NCC(N)=O [Compound 165061] (H-FLFHYSKTQKLGKSNSDEEVQVPGGVISNG-NH2; N-terminus assumed)	–	–	FI (60′, 200) (NIH/Swiss mice): 0%; remaining at 5 h ([1]; percent of stable, human brush border membrane extracts, five hours, 37° C., read-out: BBM): 57%

The next lines start with results.

remaining at 5 h [1, 2]	Structure (SMILES)	Food Intake Inhibition (NIH/Swiss mice)	other results
67%	CC(C)C[C@H](NC(=O)[C@H](CCCCN)NC(=O)[C@H](CCC(N)=O)NC(=O)[C@@H](NC(=O)[C@H](CCCCN)NC(=O)[C@H](CO)NC(=O)[C@@H](N)Cc1ccc(O)cc1)[C@@H](C)O)C(=O)NCC(=O)N[C@@H](CCCCN)C(=O)N[C@@H](CO)C(=O)N[C@@H](CC(N)=O)C(=O)N[C@@H](CCC(=O)O)C(=O)N[C@@H](CCC(=O)O)C(=O)N[C@@H](CC(C)C)C(=O)N[C@@H](CCC(N)=O)C(=O)N[C@@H](CO)C(=O)N1CCC[C@H]1C(=O)N[C@@H](CO)C(=O)N[C@@H](CCCNC(=N)N)C(=O)NCC(=O)N[C@@H](Cc1ccc(O)cc1)C(=O)N[C@@H](Cc1ccccc1)C(=O)N[C@@H](CC(C)C)C(=O)N[C@@H](Cc1ccccc1)C(=O)N[C@@H](CCCNC(=N)N)C(=O)N1CCC[C@H]1C(=O)N[C@@H](CCCNC(=N)N)C(=O)N[C@@H](CC(N)=O)C(N)=O (H-YSKTQKLGKSNEELQSPSRGYFLFRPRN-NH2; N-terminus assumed)	−69%	–
81%	CC(C)C[C@H](NC(=O)[C@H](CCCCN)NC(=O)[C@H](CCC(N)=O)NC(=O)[C@@H](NC(=O)[C@H](CCCCN)NC(=O)[C@H](CO)NC(=O)[C@H](Cc1ccc(O)cc1)NC(=O)[C@H](Cc1c[nH]cn1)NC(=O)[C@H](Cc1ccccc1)NC(=O)[C@H](CC(C)C)NC(=O)[C@@H](N)Cc1ccccc1)[C@@H](C)O)C(=O)NCC(=O)N[C@@H](CCCCN)C(=O)N[C@@H](CO)C(=O)N[C@@H](CC(N)=O)C(=O)N[C@H](C(=O)N[C@H](C(=O)N[C@@H](CCC(=O)O)C(=O)N[C@@H](CCC(=O)O)C(=O)N[C@@H](CC(C)C)C(=O)N[C@@H](CCC(N)=O)C(=O)N[C@@H](CO)C(=O)N1CCC[C@H]1C(=O)N[C@@H](Cc1ccccc1)C(=O)N[C@@H](C)C(=O)N[C@@H](CO)C(=O)N[C@@H](CCC(N)=O)C(=O)N[C@@H](CO)C(=O)N[C@@H](CCCNC(=N)N)C(=O)NCC(=O)N[C@@H](Cc1ccccc1)C(=O)N[C@@H](Cc1ccccc1)C(=O)N[C@@H](CC(C)C)C(=O)N[C@@H](Cc1ccccc1)C(=O)N[C@@H](CCCNC(=N)N)C(=O)N1CCC[C@H]1C(=O)N[C@@H](CCCNC(=N)N)C(=O)N[C@@H](CC(N)=O)C(N)=O)C(C)C)C(C)C [(Phe31]FN38] (H-FLFHYSKTQKLGKSNVVEELQSPFASQSRGFFLFRPRN-NH2; N-terminus assumed)	−64%	–
49%	CC(C)C[C@H](NC(=O)[C@H](Cc1ccccc1)NC(=O)[C@H](Cc1ccc(O)cc1)NC(=O)CNC(=O)[C@H](CO)NC(=O)[C@H](Cc1ccc(O)cc1)NC(=O)[C@H](Cc1c[nH]cn1)NC(=O)[C@H](Cc1ccccc1)NC(=O)[C@H](CC(C)C)NC(=O)[C@@H](N)Cc1ccccc1)C(=O)N[C@@H](Cc1ccccc1)C(=O)N[C@@H](CCCNC(=N)N)C(=O)N1CCC[C@H]1C(=O)N[C@@H](CCCNC(=N)N)C(=O)N[C@@H](CC(N)=O)C(N)=O [Des-(Lys7-Gly30)FN38 or FN15] (H-FLFHYSGYFLFRPRN-NH2; N-terminus and C-terminus assumed)	–	–
82%	CC(C)C[C@H](NC(=O)[C@H](CCCCN)NC(=O)[C@H](CCC(N)=O)NC(=O)[C@@H](NC(=O)[C@H](CCCCN)NC(=O)[C@H](CO)NC(=O)[C@H](Cc1ccc(O)cc1)NC(=O)[C@H](Cc1c[nH]cn1)NC(=O)[C@H](Cc1ccccc1)NC(=O)[C@H](CC(C)C)NC(=O)[C@@H](N)Cc1ccccc1)[C@@H](C)O)C(=O)NCC(=O)N[C@@H](CCCCN)C(=O)N[C@@H](CO)C(=O)N[C@@H](CC(N)=O)C(=O)N[C@H](C(=O)N[C@H](C(=O)N[C@@H](CCC(=O)O)C(=O)N[C@@H](CCC(=O)O)C(=O)N[C@@H](CC(C)C)C(=O)N[C@@H](CCC(N)=O)C(=O)N[C@@H](CO)C(=O)N1CCC[C@H]1C(=O)N[C@@H](Cc1ccccc1)C(=O)N[C@@H](C)C(=O)N[C@@H](CO)C(=O)N[C@@H](CCC(N)=O)C(=O)N[C@@H](CO)C(=O)N[C@@H](CCCNC(=N)N)C(=O)NCC(=O)N[C@@H](Cc1ccc(O)cc1)C(=O)N[C@@H](Cc1ccccc1)C(=O)N[C@H](C(=O)N[C@@H](Cc1ccccc1)C(=O)N[C@@H](CCCNC(=N)N)C(=O)N1CCC[C@H]1C(=O)N[C@@H](CCCNC(=N)N)C(=O)N[C@@H](CC(N)=O)C(N)=O)C(C)C)C(C)C)C(C)C [[Val33]FN38] (H-FLFHYSKTQKLGKSNVVEELQSPFASQSRGYFVFRPRN-NH2; N-terminus and C-terminus assumed)	–	–
